Where a SMILES comes first, the peptide text is derived from it. [ ]: non-standard residue; d: D form. The star is where a group is joined. Nva = CCC[C@H](N)C(=O)O; Cbz = O=C(OCc1ccccc1)*; OtBu = CC(C)(C)O*
Legend:
[1] = test system: hair follicles; assay: Modified in vivo calvarial assay: number of hair follicles after injection over the calvaria; parameters: species or system Swiss ICR mice; conditions: for number of hair follicles: administered in the same way as PSI (injection over the calvaria)
Experimental: Male ICR Swiss white mice, aged 4-6 weeks and weighing 13-26 gm, are employed, using 4-5 mice per group. The calvarial bone growth assay is performed as described in PCT application WO95/242 11, incorporated by reference. Briefly, the test compound or appropriate control vehicle is injected into the subcutaneous tissue over the right calvaria of normal mice. Typically, the control vehicle is the vehicle in which the compound was solubilized, and is PBS containing 5% DMSO or is PBS containing Tween (2 μl/10 ml). The animals are sacrificed on day 14 and bone growth measured by histomorphometry. Bone samples for quantitation are cleaned from adjacent tissues and fixed in 10% buffered formalin for 24-48 hours, decalcified in 14% EDTA for 1-3 weeks, processed through graded alcohols; and embedded in paraffin wax. Three to five μm sections of the calvaria are prepared, and representative sections are selected for histomorphometric assessment of the effects on bone formation and bone resorption. Sections are measured by using a camera lucida attachment to trace directly the microscopic image onto a digitizing plate. Bone changes are measured on sections cut 200 μm apart, over 4 adjacent 1×1 mm fields on both the injected and noninjected sides of the calvaria. New bone is identified by its characteristic woven structure, and osteoclasts and osteoblasts are identified by their distinctive morphology. Histomorphometry software (OsteoMeasure, Osteometrix, Inc., Atlanta) is used to process digitizer input to determine cell counts and measure areas or perimeters.
(§1) The assay described above to assess the effect of compounds on calvarial bone growth can also be used to assess the ability of compounds to stimulate hair growth. The test compound or appropriate control vehicle is applied to the upper and lower back of male ICR Swiss white mice either topically or by subcutaneous injection. The vehicle is selected as appropriate for the compound to be tested and for the route of administration. Optionally, the hair in the test area may be removed prior to administration. After a suitable interval, typically 7 days, the mice are anesthetized and a biopsy of the dorsal treatment area is taken using a 6 mm dermal punch. The specimens are fixed in 10% buffered formalin and imbedded in paraffin wax, and sectioned and stained to observe hair follicles. In addition, photography can be used to observe and record hair growth; typically such growth is observed after 14-18 days. After a suitable interval, typically 21 days, the animals may be euthanized and the hair analyzed for fiber analysis and the tissue from the treatment area analyzed for quantitation of hair follicles.
The in vivo bone calvarial growth assay of Example 3 was modified to observe the number of hair follicles in treated mice. […]

[2] = test system: hair follicles; assay: Stimulation of hair growth: subcutaneous injection into scalp and dorsal region after wax hair stripping; type: in vivo, Male Swiss ICR mice; conditions: 1 mg/kg/day s.c. three times a day for five days
From the text: as §1
Male Swiss ICR mice were first treated to remove hair from the scalp and dorsal regions as follows. Paraffin wax was liquefied by heating to 55° C. and the liquefied wax then applied by brush to the scalp and/or back (under anesthesia). The wax was allowed to solidify and then removed. The day following hair stripping, PSI (1 mg/kg/day) was injected subcutaneously three times a day for five days into the scalp and dorsal region.
The mice were sacrificed on day 21 and histology was performed on the dermis of the scalp and of the dorsal region. […] Upon closer examination, it was observed that mice that had received only vehicle had quiescent hair follicles.

[3] = test system: hair follicles; assay: Topical administration of PSI solution, hair growth; type: in vivo, mice
Experimental: PSI was prepared as a topical formulation, where the vehicle was 50% propylene glycol, 30% ethanol, 20% deionized water, at 0.1% concentration of PSI. The solution was applied 3 times a day for 5 days. The mice in a treated group were observed as compared to controls similarly treated with vehicle alone.
When the protocol above was repeated using a 0.5% solution of PSI in groups containing 5 mice each, the number of hairs per 0.8 mm^2 was 60 in the treated mice versus about 10 in the control group. The percentage of follicle area in a region of about 0.8 mm^2 was about 30% as an average in the treated group as compared to 15% as an average in the control group.

[4] = test system: hair follicles; assay: Topical dose response of PSI (dose requirements); type: in vivo, mice
Experimental: In order to determine the minimal effective dosage of PSI, when used topically, a dose response curve for PSI was prepared. All experiments were preformed according to current good laboratory practice regulations (21CFR58). The mice were divided into 7 groups, 10 mice each, wherein one group was control treated only with vehicle and groups 1-6 with a series of increasing concentrations of PSI in a vehicle comprising 50% propylene glycol, 30% ethanol, 20% deionized water. The concentrations were 0.006%, 0.012%, 0.025%, 0.05%, 0.11% and 0.5%.
The mice were anesthetized (50 μl Mouse Cocktail containing 3 ml ketamine, 2 ml small animal rompum, 5 ml NaCl), identified by ear punch code, weighed and the hair on the dorsal side removed by waxing as described in Example 6. After waxing, the animals were photographed. On the following day (day 1), 100 μl of PSI at the above concentrations in vehicle was brushed onto the area of removed hair. […]
On Day 7 mice were anesthetized and a biopsy of the dorsal treatment area taken using a 6 mm dermal punch; the specimens were fixed in 10% buffered formalin and embedded in paraffin wax. Sections were cut using a standard microtome.
Mice were monitored daily for signs of hair growth, and any hair growth was recorded by photography. On day 21 animals were euthanized (75 mg/kg body weight phenobarbital, IP injection), 2 cm hair samples were taken for optical based fiber analysis, and the remaining dorsal treatment area was fixed in 10% buffered formalin for further histological analysis. Analysis included quantification of hair thickness and quantification of mature hair follicles. Results were expressed as the mean =+/− the standard error of the mean. Data were analyzed by repeated measures of analysis of variance followed by the Tukey-Kramer post test P values of <0.05 were considered significant.

[5] = test system: calvarial bone; assay: in vitro calvarial assay; type: cell-based
[6] = compared with proteasome inhibitors such as MG-132
[7] = topical 0.5% solution of PSI, 3 times a day for 5 days, groups of 5 mice

With `CCC[C@@H](C=O)NC(=O)[C@H](CC(C)C)NC(=O)[C@H](CC(C)C)NC(=O)OCc1ccccc1` [MG115, N-carbobenzoyl-Leu-Leu-Nva-CHO] (Cbz-Leu-Leu-[Nva]-aldehyde) the “number of hair follicles” value ([1]; 10 mg/kg) was “stimulated an increase in the number of hair follicles”.

In the case of `CC(C)C[C@@H](C=O)NC(=O)[C@H](CC(C)C)NC(=O)[C@H](CC(C)C)NC(=O)OCc1ccccc1` [MG132, N-carbobenzoyl-Leu-Leu-Leu-CHO] (Cbz-Leu-Leu-Leu-aldehyde), the “number of hair follicles” value ([1]; 10 mg/kg) is reported as “stimulated an increase in the number of hair follicles”.

In the case of `CC[C@H](C)[C@H](NC(=O)OCc1ccccc1)C(=O)N[C@@H](CCC(=O)OC(C)(C)C)C(=O)N[C@@H](C)C(=O)N[C@H](C=O)CC(C)C` [PSI, N-carbobenzoyl-Ile-Glu-(OtBu)-Ala-Leu-CHO] (Cbz-IE(OtBu)AL-aldehyde), the “number of hair follicles (histology of the calvaria) versus control mice” value ([1]; 5mg/kg/day injected three times a day for 5 days over the calvaria, sacrificed sixteen days later) is reported as “strikingly large increase in the number of hair follicles”, the “hair growth rate versus control group” value ([2]; by day 18) is reported as “hair growth rate greater than that of the mice in the control group” and the “number of hair follicles (dermal punch biopsy histology) versus control mice” value ([2]; day 7) is reported as “large increase in the number of hair follicles”. For the same compound, the “effect on quiescent hair follicles (histology)” value ([2]; day 21) was “stimulated to differentiate into mature hair follicles and to migrate to the lower region of the dermis”, the “mature hair follicles in dermis of scalp and dorsal region (histology)” value ([2]; day 21) was “mature hair follicles in numbers much greater than in controls had migrated to the lower region of the dermis” and the “hair growth relative to vehicle controls” value ([3]; topical 0.1% PSI in 50% propylene glycol, 30% ethanol, 20% water, 3 times a day for 5 days, day 16) was “stimulation of hair growth relative to the controls”. For the same compound, the “number of hairs per 0.8 mm^2” value [3, 7] was 60 per 0.8 mm^2, the “percentage of follicle area in a region of about 0.8 mm^2 (average)” value [3, 7] was “about 30%” and the “thickness of hair and hair shaft” value ([3]; topical PSI) was “able to thicken both the hair and the hair shaft”. For the same compound, the hair count ([3]; topical PSI, follicle area greater than 0.01 mm^2) was “increases hair count”, the “efficacy on hair growth (additional experiments)” value ([4]; 0.1% applied topically 3 times a day for 5 days) was “also effective” and the “gross observation of hair growth” value ([4]; mice receiving an effective topical dose) was “an enhanced rate of hair growth, a thickening of hair diameter, increase in sheath diameter, and differentiation of quiescent hair follicles into more mature forms”. For the same compound, the “minimal effective dose (topical concentration)” value ([4]; topical, applied 1 time a day for 4 days, 100 μl in 50% propylene glycol, 30% ethanol, 20% water) was 0.5%.

For `CC(=O)N[C@@H](CSC(=O)[C@]1([C@@H](O)C(C)C)NC(=O)[C@H](C)[C@@H]1O)C(=O)O` [lactacysin, lactacystin], the “number of hair follicles” value ([1]; dose not given) was “stimulated an increase in the number of hair follicles”.

For `CC(=O)CCCCn1c(=O)c2c(ncn2C)n(C)c1=O` [pentoxyfilline], the “activity in the in vitro calvarial assay” value [5] was “active”.

For `C=C(C)[C@]12C[C@@H](C)[C@@]34O[C@](Cc5ccccc5)(O[C@@H]1[C@@H]3C=C(COC(=O)Cc1ccc(O)c(OC)c1)C[C@]1(O)C(=O)C(C)=C[C@@H]41)O2` [resiniferatoxin], the “activity in the ABA assay” value [6] was “less active”.

Reference: patent US20020103127A1, “Inhibitors of proteasomal activity for stimulating hair growth” (priority 1998, published 2002)
